Test system: human T-bet
Experiment: HEKT-bet-luc assay (normalized)
Format: cell-based
Settings: Homo sapiens, HEK293, 24 h, normalized HEKT-bet-luc IC50; engineered HEK cells, T-box responsive luciferase reporter, compound 24 hours; normalized to reference ER-819544; read-out: IC50
Method: HEKT-bet-luc assay: This assay measures a T-bet dependent reporter (luciferase) activity in engineered HEK cells that express a human T-bet and a T-box responsive element driving luciferase reporter. HEKT-bet cells were plated at 2×10^4/well in 96-well plate and compound was added into cell culture for 24 hours. Luciferase activity was measured by adding 50 μl of Steady-Glo reagent (Promega) and samples were read in Victor V reader (PerkinElmer). The activity of compound was determined by comparing compound treated samples to non-compound treated vehicle controls. The IC50 values were calculated utilizing a maximum value corresponding to the amount of luciferase in the absence of a test compound and a minimum value corresponding to a test compound value obtained at maximum inhibition.
Determination of Normalized HEKT-bet IC50 values: Compounds were assayed in microtiter plates. Each plate included a reference compound which was ER-819544. The un-normalized IC50 value for a particular compound was divided by the IC50 value determined for the reference compound in the same microtiter plate to provide a relative potency value. The relative potency value was then multiplied by the established potency of the reference compound to provide the normalized HEKT-bet IC50 value. […] The IC50 values provided herein were obtained using this normalization method.

First: CCN1C(=O)N2Cc3cc4c(cc3C(C)(C)C=C2C12CCN(Cc1cc(OC)cc(OC)c1)CC2)OCO4 [compound 819708]
Second: CCN1C(=O)N2Cc3cc(OC)cc(OC)c3C(C)(C)C=C2C12CCN(Cc1cc(OC)cc(OC)c1)CC2 [compound 819583]
The IC50 of the first is 32-fold higher: 3600 nM for the first, 112 nM for the second.

Compared with `CCN1C(=O)N2Cc3cc(OC)cc(OC)c3C(C)C=C2C12CCN(Cc1cccc3nccnc13)CC2` (centres unmarked) [compound 819595], `CCN1C(=O)N2Cc3cc(OC)cc(OC)c3C(C)C=C2C12CCN(Cc1cccc3cccnc13)CC2` (centres unmarked) [compound 819594] is 1.5-fold lower in IC50: 90 nM for the first, 60 nM for the second.

Compared with `CC=C1C=C2N(Cc3cc(OC)cc(OC)c31)C(=O)N(CC)C21CCN(Cc2cc(OC)cc(OC)c2)CC1` [compound 819651], `CCC=C1C=C2N(Cc3cc(OC)cc(OC)c31)C(=O)N(CC)C21CCN(Cc2cc(OC)cc(OC)c2)CC1` [compound 819652] is 2.5-fold higher in IC50: 110 nM for the first, 270 nM for the second.

`CCN1C(=O)N2Cc3cc(OC)cc(OC)c3C(C)C=C2C12CCN(Cc1ccoc1)CC2` (centres unmarked) [compound 819769] and `CCN1C(=O)N2Cc3cc(OC)cc(OC)c3C(C)C=C2C12CCN(Cc1cccs1)CC2` (centres unmarked) [compound 819556] are within 1.5-fold of each other in IC50: 190 nM for the first, 166 nM for the second.

First: COCCN1C(=O)N2Cc3cc(OC)cc(OC)c3CC=C2C12CCN(Cc1cc(OC)cc(OC)c1)CC2 [compound 819673]
Second: COCCN1C(=O)N2Cc3cc(OC)cc(OC)c3C(C)C=C2C12CCN(Cc1cc(OC)cc(OC)c1)CC2 (centres unmarked) [compound 819543]
The IC50 of the first is 6.8-fold higher: 102 nM for the first, 15 nM for the second. The second is the more potent here.

`COc1cc(CN2CCC3(CC2)C2=CC(C)(C)c4c(cc(OC)cc4OC)CN2C(=O)N3Cc2cccc(-n3cccc3)c2)cc(OC)c1` [compound 819590] and `COc1cc(CN2CCC3(CC2)C2=CC(C)(C)c4c(cc(OC)cc4OC)CN2C(=O)N3Cc2ccc(-n3cccn3)cc2)cc(OC)c1` [compound 819663] are within 1.5-fold of each other in IC50: 514 nM for the first, 637 nM for the second.

Compared with `COc1cc2c(c(OC)c1)C(C)(C)C=C1N(C2)C(=O)N(C)C12CCN(Cc1ccccc1)CC2` [compound 819629], `CCN1C(=O)N2Cc3cc(OC)cc(OC)c3C(C)(C)C=C2C12CCN(Cc1ccccc1)CC2` [compound 819640] is 1.5-fold lower in IC50: 840 nM for the first, 542 nM for the second. The second is the more potent here.

Compared with `COCCN1C(=O)N2Cc3cc(OC)cc(OC)c3C(C)(C)C=C2C12CCN(Cc1cc(C)cc(C)c1)CC2` [compound 819659], `CCN1C(=O)N2Cc3cc(OC)cc(OC)c3C(C)(C)C=C2C12CCN(Cc1cc(C)cc(C)c1)CC2` [compound 819607] is 7.4-fold higher in IC50: 68 nM for the first, 500 nM for the second.

Going from `COc1cc2c(c(OC)c1)C(C)(C)C=C1N(C2)C(=O)N(C)C12CCN(C/C=C/c1ccccc1)CC2` [compound 819634] to `COc1cc2c(c(OC)c1)C(C)(C)C=C1N(C2)C(=O)N(C)C12CCN(Cc1cccc3ccccc13)CC2` [compound 819637], the IC50 falls from 1150 nM to 734 nM (1.6-fold).

`CCc1ccc(CN2CCC3(CC2)C2=CC(C)c4c(cc(OC)cc4OC)CN2C(=O)N3CC)s1` (centres unmarked) [compound 819557] and `CCN1C(=O)N2Cc3cc(OC)cc(OC)c3C(C)C=C2C12CCN(Cc1cscc1Br)CC2` (centres unmarked) [compound 819558] are within 1.5-fold of each other in IC50: 510 nM for the first, 740 nM for the second.

First: COc1cccc(CN2CCC3(CC2)C2=CC(C)(C)c4c(cc(OC)cc4OC)CN2C(=O)N3Cc2ccc(-n3cccn3)cc2)c1 [compound 819650]
Second: COc1cccc(CN2CCC3(CC2)C2=CC(C)(C)c4c(cc(OC)cc4OC)CN2C(=O)N3Cc2ccccc2)c1 [compound 819649]
The IC50 of the first is 7.4-fold lower: 669 nM for the first, 4940 nM for the second.

Going from `CCN1C(=O)N2Cc3cc(OC)cc(OC)c3C(C)C=C2C12CCN(Cc1cc(Br)cc(Br)c1)CC2` (centres unmarked) [compound 819599] to `CCN1C(=O)N2Cc3cc(OC)cc(OC)c3C(C)C=C2C12CCN(Cc1cc(C)cc(C)c1)CC2` (racemic) [compound 819597], the IC50 falls from 4710 nM to 90 nM (52-fold). The second is the more potent here.

Going from `COCCN1C(=O)N2Cc3cc(OC)c(OC)c(OC)c3C(C)(C)C=C2C12CCN(Cc1cc(OC)cc(OC)c1)CC2` [compound 819701] to `COCCN1C(=O)N2Cc3cc(OC)cc(OC)c3C(C)(C)C=C2C12CCN(Cc1cc(OC)cc(OC)c1)CC2` [compound 819544], the IC50 rises from 21 nM to 35 nM (1.7-fold). The first is the more potent here.

`COCCN1C(=O)N2Cc3cc(OC)ccc3C(C)(C)C=C2C12CCN(Cc1ccccc1)CC2` [compound 819613] and `COCCN1C(=O)N2Cc3ccccc3C(C)(C)C=C2C12CCN(Cc1cc(OC)cc(OC)c1)CC2` [compound 819677] are within 1.5-fold of each other in IC50: 1310 nM for the first, 1020 nM for the second.

First: CCN1C(=O)N2Cc3cc(OC)cc(OC)c3C(C)(C)C=C2C12CCN(Cc1ccc3nc[nH]c3c1)CC2 [compound 819777]
Second: CCN1C(=O)N2Cc3cc(OC)cc(OC)c3C(C)(C)C=C2C12CCN(Cc1cccc(OC)c1)CC2 [compound 819646]
The IC50 of the first is 1.7-fold lower: 110 nM for the first, 184 nM for the second.

Going from `COCCN1C(=O)N2Cc3cc(F)cc(F)c3C(C)(C)C=C2C12CCN(Cc1cc(OC)cc(OC)c1)CC2` [compound 819704] to `COCCN1C(=O)N2Cc3cc(F)ccc3C(C)(C)C=C2C12CCN(Cc1cc(OC)cc(OC)c1)CC2` [compound 819672], the IC50 falls from 2760 nM to 877 nM (3.1-fold). The second is the more potent here.

Going from `COc1cc2c(c(OC)c1)C(C)C=C1N(C2)C(=O)N(C)C12CCN(Cc1cccc3ncccc13)CC2` (centres unmarked) [compound 819688] to `COc1cc2c(c(OC)c1)C(C)C=C1N(C2)C(=O)N(C)C12CCN(Cc1cccc3cccnc13)CC2` (centres unmarked) [compound 819689], the IC50 falls from 288 nM to 169 nM (1.7-fold).

`CCN1C(=O)N2Cc3cc(OC)cc(OC)c3C(C)(C)C=C2C12CCN(Cc1cccc3cccnc13)CC2` [compound 819604] and `CCN1C(=O)N2Cc3cc(OC)cc(OC)c3C(C)(C)C=C2C12CCN(Cc1cccc3ncccc13)CC2` [compound 819602] are within 1.5-fold of each other in IC50: 120 nM for the first, 150 nM for the second.

Going from `COCCN1C(=O)N2Cc3ccoc3C(C)(C)C=C2C12CCN(Cc1cc(OC)cc(OC)c1)CC2` [compound 819698] to `COc1cccc(CN2CCC3(CC2)C2=CC(C)(C)c4c(cc(OC)cc4OC)CN2C(=O)N3CCO)c1` [compound 819648], the IC50 falls from 1980 nM to 147 nM (13-fold).

First: CCN1C(=O)N2Cc3cc(OC)cc(OC)c3C(C)(C)C=C2C12CCN(Cc1cn(C)c3ccccc13)CC2 [compound 819606]
Second: CCN1C(=O)N2Cc3cc(OC)cc(OC)c3C(C)(C)C=C2C12CCN(Cc1ccnc3ccccc13)CC2 [compound 819601]
The IC50 of the first is 11-fold higher: 2870 nM for the first, 260 nM for the second.

`CCN1C(=O)N2Cc3cc(OC)cc(OC)c3C(C)C=C2C12CCN(Cc1cccc(OC)c1OC)CC2` (centres unmarked) [compound 819767] and `CCN1C(=O)N2Cc3cc(OC)cc(OC)c3C(C)C=C2C12CCN(Cc1cccc3cnccc13)CC2` (centres unmarked) [compound 819593] are within 1.5-fold of each other in IC50: 148 nM for the first, 140 nM for the second.

`COCCN1C(=O)N2Cc3cc(OC)cc(OC)c3C(C)(C)C=C2C12CCN(Cc1cc(OC)cc(OC)c1C)CC2` [compound 819749] and `COCCN1C(=O)N2Cc3cc(OC)cc(OC)c3C(C)(C)C=C2C12CCN(Cc1cc(OC)cc(OC)c1O)CC2` [compound 819750] are within 1.5-fold of each other in IC50: 44 nM for the first, 41 nM for the second.

First: COc1cccc(CN2CCC3(CC2)C2=CC(C)(C)c4c(cc(OC)cc4OC)CN2C(=O)N3C)c1 [compound 819628]
Second: COc1cc(CN2CCC3(CC2)C2=CC(C)(C)c4c(cc(OC)cc4OC)CN2C(=O)N3C)cc(OC)c1 [compound 819658]
The IC50 of the first is 2.6-fold higher: 360 nM for the first, 141 nM for the second. The second is the more potent here.

Going from `COc1cc2c(c(OC)c1)C(C)(C)C=C1N(C2)C(=O)N(C)C12CCN(Cc1ccc3ccccc3c1)CC2` [compound 819627] to `COc1cc2c(c(OC)c1)C(C)(C)C=C1N(C2)C(=O)N(CCO)C12CCN(Cc1ccccc1)CC2` [compound 819642], the IC50 falls from 1600 nM to 365 nM (4.4-fold).

Compared with `CCN1C(=O)N2Cc3cc(OC)cc(OC)c3C(C)C=C2C12CCN(Cc1occ(C)c1C)CC2` (centres unmarked) [compound 819771], `CCN1C(=O)N2Cc3cc(OC)cc(OC)c3C(C)C=C2C12CCN(Cc1cccn1C)CC2` (centres unmarked) [compound 819772] is 2-fold lower in IC50: 205 nM for the first, 103 nM for the second.

Compared with `COc1cc2c(c(OC)c1OC)C(C)C=C1N(C2)C(=O)N(CCO)C12CCN(Cc1cc(C)cc(C)c1)CC2` (centres unmarked) [compound 819735], `COc1cc2c(c(OC)c1)C(C)C=C1N(C2)C(=O)N(CC=C(C)C)C12CCN(Cc1cc(C)cc(C)c1)CC2` (centres unmarked) [compound 819995] is 2.4-fold higher in IC50: 140 nM for the first, 330 nM for the second. The first is the more potent here.

First: COc1cc(CN2CCC3(CC2)C2=CC(C)(C)c4c(cc(OC)cc4OC)CN2C(=O)N3CCO)c(F)c(OC)c1 [compound 819724]
Second: COc1cc(CN2CCC3(CC2)C2=CC(C)(C)c4c(cc(OC)cc4OC)CN2C(=O)N3CCO)cc(OC)c1 [compound 819657]
The IC50 of the first is 1.6-fold higher: 104 nM for the first, 65 nM for the second. The second is the more potent here.

`CCN1C(=O)N2Cc3cc(OC)cc(OC)c3C(C)(C)C=C2C12CCN(Cc1cccc3cnccc13)CC2` [compound 819603] and `CCN1C(=O)N2Cc3cc(OC)cc(OC)c3C(C)(C)C=C2C12CCN(Cc1cccc3nccnc13)CC2` [compound 819605] are within 1.5-fold of each other in IC50: 340 nM for the first, 260 nM for the second.

Compared with `CCN1C(=O)N2Cc3cc(OC)cc(OC)c3/C=C/C=C\2C12CCN(Cc1cc(OC)cc(OC)c1)CC2` [compound 819702], `CCN1C(=O)N2Cc3cc(OC)cc(OC)c3C(C)C=C2C12CCN(Cc1cc(OC)cc(OC)c1)CC2` (centres unmarked) [compound 819582] is 60-fold lower in IC50: 600 nM for the first, 10 nM for the second.

Compared with `COc1cc2c(c(OC)c1)C(C)C=C1N(C2)C(=O)N(CC2CC2)C12CCN(Cc1cc(C)cc(C)c1)CC2` (centres unmarked) [compound 819991], `CCN1C(=O)N2Cc3cc(OC)c(OC)c(OC)c3C(C)C=C2C12CCN(Cc1cccc3cccnc13)CC2` (centres unmarked) [compound 819755] is 2.3-fold lower in IC50: 120 nM for the first, 53 nM for the second. The second is the more potent here.

`COCCN1C(=O)N2Cc3cc(OC)cc(OC)c3C(C)(C)C=C2C12CCN(Cc1cc(OC)cc(OC)c1OC)CC2` [compound 819752] showed an IC50 of 71 nM.

Same assay, conditions: normalized HEKT-bet-luc IC50; engineered HEK cells, T-box responsive luciferase reporter, compound 24 hours; normalized to reference ER-819544; read-out: IC50

`COc1cc(CN2CCC3(CC2)C2=CC(C)(C)c4c(cc(OC)cc4OC)CN2C(=O)N3CCO)cc(OC)c1` [compound 819657] showed an IC50 of 124 nM.
